These results are taken from patent US20230339851A1, “CXCR6 SULFONAMIDE COMPOUNDS” (CHEMOCENTRYX, INC., priority 2022, published 2023).

Structures are written as SMILES. pIC50: −log10 of the molar value.

For orientation: pIC50 means the negative decadic logarithm of the IC50, by convention in mol/L.

T1 sequence (O00574 whole entry): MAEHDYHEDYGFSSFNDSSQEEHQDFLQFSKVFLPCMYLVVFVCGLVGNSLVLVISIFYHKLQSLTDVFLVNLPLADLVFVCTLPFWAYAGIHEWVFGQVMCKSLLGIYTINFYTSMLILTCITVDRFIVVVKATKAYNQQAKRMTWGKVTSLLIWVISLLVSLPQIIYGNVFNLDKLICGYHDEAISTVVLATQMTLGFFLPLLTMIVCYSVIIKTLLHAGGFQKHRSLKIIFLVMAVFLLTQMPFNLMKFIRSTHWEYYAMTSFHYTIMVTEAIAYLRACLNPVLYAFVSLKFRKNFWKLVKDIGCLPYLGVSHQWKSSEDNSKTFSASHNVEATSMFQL

The experiment concerns the target T1, human CXCR6 (Homo sapiens, UniProt O00574).
T1 construct: expressed in transfected cells
The experiment is described as follows: Radioligand Binding Assay (125I-CXCL16 displacement). The following applies: L1.2 cells stably transfected with human CXCR6 cDNA, 0.1 nM 125I-CXCL16, 4° C., three-hour incubation; read-out: Potency (IC50). The method in brief:
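L1.2 cells stably expressing human CXCR6 incubated 3 h at 4 °C in HBSS/0.1% BSA with 0.1 nM 125I-CXCL16 and graded compound concentrations. Bound radioactivity collected by filtration and counted; IC50 from 3-parameter nonlinear regression.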
Regarding `CCOc1cc(NC(=O)C(C)O)ccc1S(=O)(=O)Nc1cccc(OC(F)(F)F)c1` (stereo not drawn) [Example 1.532], the pIC50 was 6.12 to 6.70.
With `CCOc1cc(NC(=O)[C@@H](O)C(C)C)ccc1S(=O)(=O)Nc1ccc(Cl)c(OC(F)(F)F)c1` [Example 1.533], the pIC50 is no less than 6.70.
Under `COc1cccc(C(=O)Nc2ccc(S(=O)(=O)Nc3cccc(C(F)(F)F)c3)c(C)c2)c1` [Example 1.534] stands 4.70 to 5.70; under `COc1cc(NC(=O)C(O)C(C)C)ccc1S(=O)(=O)Nc1cccc(C(F)(F)F)c1` (stereo not drawn) [Example 1.535], no less than 6.70.
For `CCOc1cc(NC(=O)[C@@H](CO)c2ccccc2)ccc1S(=O)(=O)Nc1cccc(OC(F)(F)F)c1` [Example 1.536], the negative logarithm of the IC50 (pIC50) is no less than 6.70.
Under `COc1cc(NC(C)=O)cc(F)c1S(=O)(=O)Nc1cccc(OC(F)(F)F)c1` [Example 1.537] stands 4.70 to 5.70; under `Cc1cc(NC(=O)C2CCCCC2C)ccc1S(=O)(=O)Nc1cccc(C(F)(F)F)c1` (stereo not drawn) [Example 1.538], 5.70 to 6.12; under `CCOc1cc(NC(=O)[C@H]2CC=CC[C@H]2CO)ccc1S(=O)(=O)Nc1cccc(OC(F)(F)F)c1` [Example 1.539], 6.12 to 6.70.
For `CCOc1cc(NC(=O)[C@@H](CO)C(C)C)ccc1S(=O)(=O)Nc1cccc(Cl)c1C` [Example 1.540], the pIC50 is 6.12 to 6.70.
Under `CCOc1cc(NC(=O)[C@@H](CO)c2ccccc2)ccc1S(=O)(=O)Nc1cccc(C(C)C)c1` [Example 1.541] stands no less than 6.70; under `CC(C)Oc1cc(NC(=O)c2ccns2)ccc1S(=O)(=O)Nc1cccc(C(F)(F)F)c1` [Example 1.542], 4.70 to 5.70; under `CCOc1cc(NC(=O)[C@@H](NC(C)=O)C(C)C)ccc1S(=O)(=O)Nc1ccc(C)c(C(F)(F)F)c1` [Example 1.543], no less than 6.70.
In the case of `COCC(=O)Nc1ccc(S(=O)(=O)Nc2cccc(C(F)(F)F)c2)c(C)c1` [Example 1.544], the pIC50 was 4.70 to 5.70.
On to `CCOc1cc(NC(=O)C2CCCC(O)C2)ccc1S(=O)(=O)Nc1cccc(OC(F)(F)F)c1` (stereo not drawn) [Example 1.545], for which the pIC50 is 5.70 to 6.12.
Regarding `CCOc1cc(NC(=O)[C@@H](CO)c2ccccc2)ccc1S(=O)(=O)Nc1ccc(OC)c(C(F)(F)F)c1` [Example 1.546], the pIC50 is 6.12 to 6.70.
As for `CCOc1cc(NC(=O)[C@H](O)c2ccccc2)ccc1S(=O)(=O)Nc1cccc(OC(F)(F)F)c1` [Example 1.547], the pIC50 is 6.12 to 6.70.
On to `C=Cc1cc(NS(=O)(=O)c2ccc(NC(=O)[C@@H](CO)C(C)C)cc2OCC)ccc1C` [Example 1.548], for which the pIC50 was no less than 6.70.
With `O=C(Nc1ccc(S(=O)(=O)Nc2cccc(C(F)(F)F)c2)c(F)c1)c1ccccc1` [Example 1.549], the pIC50 is 4.70 to 5.70.
In the case of `CCOc1cc(NC(=O)[C@@H](CO)c2ccccc2)ccc1S(=O)(=O)Nc1ccc(Cl)c(OC)c1` [Example 1.550], the pIC50 is 6.12 to 6.70.
Then `CCCOc1cc(NC(=O)[C@@H](CO)C(C)C)ccc1S(=O)(=O)Nc1cccc(OC(F)(F)F)c1` [Example 1.551], with no less than 6.70; and `COc1cc(NC(=O)c2ccnn2C)ccc1S(=O)(=O)Nc1ccc(C)c(C(F)(F)F)c1` [Example 1.552], with no less than 6.70; and `Cc1cc(NC(=O)CN(C)C)ccc1S(=O)(=O)Nc1cccc(C(F)(F)F)c1` [Example 1.553], with 4.70 to 5.70.
Consider `COc1cc(NC(=O)[C@@H]2CCC[C@@H](OC)C2)ccc1S(=O)(=O)Nc1cccc(C(F)(F)F)c1` [Example 1.554], for which the pIC50 was 4.70 to 5.70.
With `CCOc1cc(NC(=O)[C@@H](O)C(C)C)ccc1S(=O)(=O)Nc1cccc(Cl)c1Cl` [Example 1.555], the pIC50 was 4.70 to 5.70.
On to `CCOc1cc(NC(=O)[C@@H](O)c2ccccc2)ccc1S(=O)(=O)Nc1ccc(C2CC2)c(OC(F)(F)F)c1` [Example 1.556], for which the pIC50 is 6.12 to 6.70.
In the case of `COc1cc(NC(=O)[C@@H](O)C(C)C)ccc1S(=O)(=O)Nc1ccc(C)c(OC(F)(F)F)c1` [Example 1.557], the pIC50 is no less than 6.70.
Take `CCOc1cc(NC(=O)[C@@H](CO)C(C)C)ccc1S(=O)(=O)Nc1ccc(C(F)(F)F)cc1` [Example 1.558]: the pIC50 is 6.12 to 6.70.
In the case of `COc1cc(NC(=O)c2ccnn2C)ccc1S(=O)(=O)Nc1ccc(OC(F)(F)F)c(Cl)c1` [Example 1.559], the pIC50 is 5.70 to 6.12.
With `CCOc1cc(NC(=O)[C@@H](N)c2ccccc2)ccc1S(=O)(=O)Nc1ccc(F)c(OC(F)(F)F)c1` [Example 1.560], the pIC50 was no less than 6.70.
Under `COc1cc(NC(=O)[C@@H]2CCC[C@H](OC)C2)ccc1S(=O)(=O)Nc1cccc(C(F)(F)F)c1` [Example 1.561] stands 4.70 to 5.70; under `CCOc1cc(NC(=O)[C@@H]2CCCCC[C@H]2O)ccc1S(=O)(=O)Nc1cccc(OC(F)(F)F)c1` [Example 1.562], 6.12 to 6.70; under `CCOc1cc(NC(=O)C(CO)C(C)C)ccc1S(=O)(=O)Nc1cccc(OC(F)(F)F)c1` (stereo not drawn) [Example 1.563], no less than 6.70.
With `CCOc1cc(NC(=O)C(O)c2ccc(Br)cc2)ccc1S(=O)(=O)Nc1cccc(OC(F)(F)F)c1` (stereo not drawn) [Example 1.564], the pIC50 was 6.12 to 6.70.
For the molecule `COc1cc(NC(=O)C2CC3C=CC2O3)ccc1S(=O)(=O)Nc1cccc(C(F)(F)F)c1` (stereo not drawn) [Example 1.565], the pIC50 was 6.12 to 6.70.
In the case of `CCOc1cc(NC(=O)Cc2ccccc2OC)ccc1S(=O)(=O)Nc1cccc(OC(F)(F)F)c1` [Example 1.566], the pIC50 is 6.12 to 6.70.
Under `CCOc1cc(NC(=O)c2ccns2)ccc1S(=O)(=O)Nc1cccc(C(F)(F)F)c1` [Example 1.567] stands no less than 6.70.
Consider `CCOc1cc(NC(=O)c2ccc(OC)cc2)ccc1S(=O)(=O)Nc1cccc(OC(F)(F)F)c1` [Example 1.568], for which the pIC50 was 5.70 to 6.12.
On to `Cc1cc(NC(=O)C(CO)c2ccccc2)ccc1S(=O)(=O)Nc1cccc(OC(F)(F)F)c1` (stereo not drawn) [Example 1.569], for which the pIC50 was 6.12 to 6.70.
On to `CCOc1cc(NC(=O)[C@@H](O)C(C)C)ccc1S(=O)(=O)Nc1cccc(Cl)c1C` [Example 1.570], for which the pIC50 is 5.70 to 6.12.
As for `CCOc1cc(NC(=O)C(CC)C(=O)O)ccc1S(=O)(=O)Nc1cccc(OC(F)(F)F)c1` (stereo not drawn) [Example 1.571], the pIC50 is no less than 6.70.
Under `COc1cc(NC(=O)C2CCCCO2)ccc1S(=O)(=O)Nc1cccc(C(F)(F)F)c1` (stereo not drawn) [Example 1.572] stands 5.70 to 6.12; under `CC(=O)Nc1ccc(S(=O)(=O)Nc2cccc(C(F)(F)F)c2)c(C(C)C)c1` [Example 1.573], 4.70 to 5.70.
Turning to `COc1cc(NC(=O)CC2CCOCC2)ccc1S(=O)(=O)Nc1cccc(C(F)(F)F)c1` [Example 1.574], the pIC50 was 4.70 to 5.70.
In the case of `Cc1cc(NC(=O)C2CCCCC2)ccc1S(=O)(=O)Nc1cccc(C(F)(F)F)c1` [Example 1.575], the pIC50 was 5.70 to 6.12.
Turning to `CCOc1cc(NC(=O)[C@@H](NC(C)=O)C(C)C)ccc1S(=O)(=O)Nc1ccc(Cl)c(OC(F)(F)F)c1` [Example 1.576], the pIC50 is no less than 6.70.
Then `CCOc1cc(NC(=O)[C@@H](O)C(C)(C)C)ccc1S(=O)(=O)Nc1cccc(OC(F)(F)F)c1` [Example 1.577], with no less than 6.70.
Under `CCCc1cc(C(=O)Nc2ccc(S(=O)(=O)Nc3cccc(C(F)(F)F)c3)c(OC)c2)n(C)n1` [Example 1.578] stands 5.70 to 6.12; under `CCOc1cc(NC(=O)[C@@H](O)C(C)C)ccc1S(=O)(=O)Nc1cccc(Cl)c1C(F)(F)F` [Example 1.579], 4.70 to 5.70.
Consider `COc1ccc(NS(=O)(=O)c2ccc(NC(=O)c3ccnn3C)cc2OC)cc1C(F)(F)F` [Example 1.580], for which the pIC50 was 6.12 to 6.70.
Then `COc1cc(NC(=O)c2ccnn2C)ccc1S(=O)(=O)Nc1ccc2c(c1)OC(F)(F)O2` [Example 1.582], with 5.70 to 6.12; and `C=CC(=O)Nc1ccc(S(=O)(=O)Nc2cccc(OC(F)(F)F)c2)c(OCC)c1` [Example 1.583], with 6.12 to 6.70.
